As usually defined, the Papp A→B is how fast a substance crosses the layer from the apical side. A word on the bioavailability: it is dose-corrected exposure relative to a reference, in per cent.

Data set [1] has as its system Caco-2 cell monolayers. Kind of data set: Membrane integrity (TEER) of Caco-2 cell monolayers before and after transport. Format: cell-based. To be noted: at the concentrations used; TEER 980-1002 Ωcm^2 before, not changed after transport. How it is done: Each treatment was performed in triplicate. […] Samples then underwent LC/MS/MS analysis.
On the technique in general: Caco-2 cells form a polarised layer with tight junctions and transporters.

For data set [2] the following is noted: cited from earlier work.
Data set [3] deals with Caco-2 cell monolayers. Kind of data set: Transport (Papp) across Caco-2 cell monolayers, AP to BL. To be noted: after the initial 20-minute transport period.
Test in data set [4]: as above
To be noted: human, Caco-2, Apparent permeability coefficients of oxycodone (±standard deviation) (n = 3); for Papp A→B at 20 min, 0.02 mg/ml: after 20 minutes; for Papp A→B at 80 min, 0.02 mg/ml: oxycodone 0.02 mg/ml, AP-to-BL.

For data set [5] the following is noted: tertiary amine; cited from earlier work.
The next data set is described as follows: in vitro. To be noted: human, Caco-2, Apparent permeability coefficients of ibuprofen (±standard deviation) (n = 3).

On to `COc1ccc2c3c1O[C@H]1C(=O)CC[C@@]4(O)[C@@H](C2)N(C)CC[C@]314.Cl` [oxycodone HCl, oxycodone hydrochloride], for which the “integrity of Caco-2 cell monolayers (TEER)” value in the data set on Caco-2 cell monolayers [1] is reported as “did not compromise the integrity”. The absolute bioavailability in data set [2] (literature (Leow et al. 1992)) is recorded as 87%. For the same compound, the “percentage of transported oxycodone from apical to basolateral compartment” value is on record as 20% with Caco-2 cell monolayers [3] (ibuprofen 0.8 mg/ml), 19% in the data set with Caco-2 cell monolayers [3] (ibuprofen 1.6 mg/ml) and 15% with Caco-2 cell monolayers [3] (no ibuprofen). Further, the “transport of oxycodone, effect of ibuprofen” value in the data set with Caco-2 cell monolayers [3] (ibuprofen 3.2 mg/ml (precipitating)) was “did not increase the transport”. Further, the Papp A→B at 20 min, 0.02 mg/ml in data set [4] (ibuprofen 0 mg/ml) amounted to 15 ± 0.9 ×10⁻⁶ cm/s; in data set [4] (ibuprofen 0.8 mg/ml), 20 ± 0.6 ×10⁻⁶ cm/s; in data set [4] (ibuprofen 1.6 mg/ml), 19 ± 0.3 ×10⁻⁶ cm/s; in data set [4] (ibuprofen 3.2 mg/ml), 16 ± 0.7 ×10⁻⁶ cm/s. The Papp A→B at 80 min, 0.02 mg/ml in data set [4] (ibuprofen 0 mg/ml) came out at 54.2 ± 0.9 ×10⁻⁶ cm/s; in data set [4] (ibuprofen 0.8 mg/ml), 56.9 ± 1.4 ×10⁻⁶ cm/s; in data set [4] (ibuprofen 1.6 mg/ml), 55.1 ± 1.3 ×10⁻⁶ cm/s; in data set [4] (ibuprofen 3.2 mg/ml (precipitate)), 50.5 ± 0.5 ×10⁻⁶ cm/s. Besides, the pKa entry in data set [5] was “about 9”.

For `CC(C)Cc1ccc(C(C)C(=O)O)cc1` (stereo not drawn) [ibuprofen], the “integrity of Caco-2 cell monolayers (TEER)” value in the data set with Caco-2 cell monolayers [1] is “did not compromise the integrity”. The bioavailability in data set [2] (literature (Hall et al. 1993)) was about 100%. Besides, the Papp A→B at 80 min, 0.2 mg/ml in “in vitro” is 56.5 ± 4.3 ×10⁻⁶ cm/s.
